# Results as given in patent publication US10172820B2, “Skin preparation composition for external use having excellent antiseptic ability” (AMOREPACIFIC CORPORATION, priority 2011, dated 2019).
# Test: Skin irritation test (24 hour patch test)
# Parameters: species or system human
# Details: in vivo; for Average skin irritation score: human, 24 h
# Procedure: The patch is applied to the upper part of the back of each panel, using 20 μL of the test ingredient on an IQ chamber (Chemotechique, […]). The patch is removed after 24 hours of application and a first evaluation is conducted in 30 more minutes. After 24 hours, a second evaluation is carried out. To determine the severity of the skin irritation of each specimen, a weighted grade is applied according to the severity of the positive reaction on the skin to calculate the average skin irritation score as given by the following Equation and determine the severity of the skin irritation from the specimen. […] Mild irritation Score≥5: Severe irritation
SMILES,Average skin irritation score (5 %),"Skin irritation, result in words",Average skin irritation score (4 %),Average skin irritation score (1 %)
"CCCCCCCC(=O)OCC(O)CO (stereo not drawn) [Glyceryl caprylate, glyceryl caprylate]",0.94,almost no irritation,–,–
"C=CCCCCCCCCC(=O)OCC(O)CO (stereo not drawn) [Glyceryl undecylenate, glyceryl undecylenate]",–,almost no irritation,0.00,–
COc1ccc(C(=O)O)cc1 [p-anisic acid],–,almost no irritation,–,0.94
